Source: patent publication US20150080475A1, “Memantine Protects Inflammation-Related Degeneration of Dopamine Neurons Through Inhibition of Over-Activated Microglia and Release of Neurotrophic Factors From Astroglia” (priority 2009, published 2015)

Assays:
DA neurons = assay: [3H] DA uptake, LPS-induced neurotoxicity in rat mesencephalic neuron-glia cultures; assay type: cell-based
Protocol: Rat and mouse ventral mesencephalic neuron-glia cultures were prepared using a described protocol (Gao H M, Hong J S, Zhang W Q, Liu B (2002) Distinct Role for Microglia in Rotenone-Induced Degeneration of Dopaminergic Neurons. J Neurosci 22(3):782-790). Briefly, midbrain tissues were dissected from day 14 Fisher 344 rat embryos or day 14 mouse embryos (PHOX^+/+ or PHOX^−/−). Cells were dissociated via gentle mechanical trituration in minimum essential medium (MEM) and immediately seeded (5×10^5/well) in poly D-lysine (20 μg/mL) precoated 24-well plates. Cells were seeded in maintenance media and treated with the treatment media described previously (Gao H M, Hong J S, Zhang W Q, Liu B (2002) Distinct Role for Microglia in Rotenone-Induced Degeneration of Dopaminergic Neurons. J Neurosci 22(3):782-790). Three days after seeding, the cells were replenished with 500 μL of fresh maintenance media. Cultures were exposed 7 days after seeding. At the time of treatment, the composition of the cultures was approximately 48% astrocytes, 11% microglia, 40% neurons, and 1 to 1.5% TH-immunoreactive (ir) neurons.
Cells were incubated in Krebs-Ringer buffer (16 mM NaH2PO4, 1.2 mM MgSO4, 1.3 mM EDTA, […], for 21 min at 37° C. with 1 μM [^3H] DA. Nonspecific uptake was blocked for DA with 10 μM mazindole. After incubation, cells were washed three times with 1 mL/well of ice-cold Krebs-Ringer buffer. Cells were then lysed with 0.5 mL/well of 1 N NaOH and mixed with 15 mL of scintillation fluid. Radioactivity was measured on a scintillation counter, where specific [^3H] DA uptake was calculated by subtracting the mazindole.
Rat mesencephalic neuron-glia cultures were pretreated for 30 min with vehicle or 1, 3, 10 μM MMT before adding LPS (2.5 to 5 ng/ml) to the cultures. One week later, the neurotoxic effect of LPS on DA neurons were assessed by both [H^3] DA uptake, which measures the functional capacity of high affinity uptake of DA cells and cell count of tyrosine hydroxylase-positive (TH-ir) cells. [H^3] […]

nitric oxide = assay: Nitrite assay (Griess reagent) after LPS; assay type: cell-based; conditions: 24 and 48 h after LPS stimulation
Protocol: As an indicator of nitric oxide production, the amount of nitrite accumulated in culture supernatant was determined with a colorimetric assay using Griess reagent [1% sulfanilamide, 2.5% H3PO4, 0.1% N-(1-naphthyl)ethylenediamine dihydrochloride]. Briefly, 50 μL of Griess reagent and 50 μL of culture supernatant were incubated in the dark at room temperature for 10 min. After incubation, the absorbance at 540 nm was determined with the Spectra Max Plus microplate spectrophotometer. The sample nitrite concentration was determined from a sodium nitrite standard curve.
Neuron-glia cultures were pretreated for 30 min with MMT (3 μM) or vehicle before LPS stimulation. […] Production of superoxide (30 min after LPS) and iROS (2 h after LPS) was decreased by MMT treatment (FIGS. 6A and 6B). […] The production of PGE2 in cultures pretreated with 3 and 10 μM MMT decreased by 23% and 27% respectively (FIG. 6E).

## CC12CC3CC(C)(C1)CC(N)(C3)C2.Cl [MMT, 1-amino-3,5-dimethyladamantane hydrochloride]
DA neurons; MMT 10 μM, LPS 2.5 ng/ml, post-treatment
  time of MMT addition after LPS still giving significant neuroprotection (DA uptake): up to 120 min
DA neurons; neuron-enriched cultures
  effect on LPS-induced decrease in DA uptake: not in neuron-enriched cultures
DA neurons; pretreated 30 min with 1, 3, 10 μM MMT, neuron-glia cultures, dose-dependent
  effect on LPS-induced decrease in DA uptake: significantly attenuated the LPS-induced decrease in DA uptake
Nitric oxide
  release of NO (measured as nitrite): reduced
